{"source": "patent US20070155803A1", "about": "“Protease inhibitors” (ProZymex A/S, priority 2003, published 2007)", "key": {"Human cathepsin G": {"molecular_target": "T1, Human cathepsin G (Homo sapiens, UniProt P08311)", "T1 construct": "purchased Calbiochem 219373", "T1 sequence (P08311 21-244)": "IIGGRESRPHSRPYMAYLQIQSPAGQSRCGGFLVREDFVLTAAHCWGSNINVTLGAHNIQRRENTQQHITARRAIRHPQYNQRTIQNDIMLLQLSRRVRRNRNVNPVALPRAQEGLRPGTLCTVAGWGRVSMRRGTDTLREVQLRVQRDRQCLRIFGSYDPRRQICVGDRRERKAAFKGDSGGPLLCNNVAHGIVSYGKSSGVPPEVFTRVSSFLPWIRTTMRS", "assay": "Human cathepsin G assay", "type": "biochemical", "experimental": "Using this assay, the selectivity of a compound of the invention for hDPP-I over human cathepsin G was determined, using a chromogenic substrate.\nBuffer containing 100 mM Tris/HCl pH 8.3 (25° C.), 500 mM NaCl, and 20 mM CaCl2 prepared. DTNB (5,5′-dithio-bis(2-nitrobenzoic acid)) was added just prior to experiment (10 μL 1.25 mM/well).\nHuman cathepsin G (Calbiochem Cat # 219373, 50 ng/μL 0.1 mU/μL stock) was reconstituted in 50 mM sodium acetate and 150 mM NaCl (pH 5.5), and stored at −20° C. Diluted to 2 ng/μL in buffer just prior to experiment.\nSuc-Ala-Ala-Pro-Phel-SBzl (Bachem Cat # 4009924.0050) diluted to 1 mM in buffer from 10 mM stock in buffer. Km determined to 100-200 μM.\nThe assay was performed in 96-well plates. 60 μL assay buffer was added to the well followed by 10 μL DTNB (1.25 mM), and 10 μL of a compound of the invention (100 μM, diluted with assay buffer to give 10 μM in the assay). Then 10 μL (2 ng/μL) enzyme was added, and 10 min. later (at 37° C.) 10 μL substrate (100 μM final concentration) was added. The absorption was measured at 410 nm for 10 minutes at 37° C. Each measurement was made in duplicate. In the software (SOFTmax Pro) used for data collection from the UV-spectrometer it was ensured that the measured slopes were linear (R^2>0.99). […]"}, "[1]": {"molecular_target": "T2, cellular rat DPP-I (RBL-2H3 cells) (Rattus norvegicus, UniProt P80067)", "T2 construct": "The RBL-2H3 cells (basophilic leukaemia cell line), were obtained from the American Type Culture Collection; endogenous in cells; host or cells: RBL-2H3 cells (ATCC)", "T2 sequence (P80067 25-462)": "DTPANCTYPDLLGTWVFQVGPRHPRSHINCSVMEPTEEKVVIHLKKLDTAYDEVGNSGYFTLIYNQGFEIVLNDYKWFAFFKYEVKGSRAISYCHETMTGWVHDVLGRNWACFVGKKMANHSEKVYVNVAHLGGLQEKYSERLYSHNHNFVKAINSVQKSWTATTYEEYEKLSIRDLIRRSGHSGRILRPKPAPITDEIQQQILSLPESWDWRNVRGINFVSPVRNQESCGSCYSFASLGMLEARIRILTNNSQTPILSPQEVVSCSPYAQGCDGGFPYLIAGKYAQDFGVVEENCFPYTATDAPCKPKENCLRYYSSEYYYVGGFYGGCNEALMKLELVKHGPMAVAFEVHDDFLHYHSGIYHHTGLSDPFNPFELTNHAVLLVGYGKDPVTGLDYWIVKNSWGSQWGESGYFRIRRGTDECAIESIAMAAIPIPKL", "assay": "Cellular DPP-I assay", "type": "cell-based", "settings": "concentration and time not given", "experimental": "The following assay was used to the determine the inhibitory effect of compounds of the invention on cellular rat DPP-I.\nThe RBL-2H3 cells (basophilic leukaemia cell line), were obtained from the American Type Culture Collection. Cells were cultured at 37° C. in humidified air atmosphere with 5% CO2. Cells were grown in complete media (CM) consisting of RPMI (GIBCO) supplemented with 10% heat-inactivated foetal bovine serum (FBS; GIBCO), 100 U/mL penicillin and 100 ug/mL streptomycin (GIBCO).\nAll cell-based experiments employing inhibitors of DPP-I were performed by addition of the compound (kept below −20° C. as a 10 mM stock solution in DMSO (Sigma)) for indicated time and concentrations to sub-confluent cell cultures growing on culture dishes. All experiments were set up in triplicates. Following the treatment, cells were washed twice in ice-cold PBS (Sigma) and scraped from the culture dish. After another wash in PBS cells were lysed in ice-cold H2O containing 0.3% Triton×100. An additional volume of buffer containing 40 mM MOPS, 2M NaCl, 2 mM EDTA and 20% of glycerol was added. The cell lysate was clarified by centrifugation at 3000 rpm for 10 min. The resulting supernatant was transferred to eppendorf tubes. The Coomassie Plus Protein Assay (Pierece) was used to determine protein levels of the samples.\nIn Vitro Measurement of DPP-I Activity: […]"}}, "note": "pIC50: −log10 of the molar value. Square brackets hold non-standard residues; d marks the D form. Peptide text beside a SMILES is read from it. Phe(3-F) = N[C@@H](Cc1cccc(F)c1)C(=O)O; hPhe = N[C@@H](CCc1ccccc1)C(=O)O; Abu = CC[C@H](N)C(=O)O; azaGly = NNC(=O)O", "data": [{"smiles": "CC[C@H](N)C(=O)NNC(=O)N[C@@H](CCc1ccccc1)C(=O)N[C@@H](Cc1cccc(F)c1)C(N)=O", "note": "[Example 11, 1-(2S-2-Aminobutanoyl)-4-[2S-N-[2S-3-(m-fluorophenyl)propan-2-yl-amide]-4-phenylbutan-2-yl-amide]semicarbazide] (H-[Abu][azaGly][hPhe][Phe(3-F)]-NH2)", "values": [{"measurement": "Inhibition of Cathepsin G (in words)", "setting": "Human cathepsin G", "result": "does not inhibit"}, {"measurement": "pIC50", "setting": "Human cathepsin G; human cathepsin G, 10 μM cutoff, read-out: Secondary enzymatic screening (10 μM cutoff or IC50) Cathepsin G", "result": "< 5.00"}, {"measurement": "Cellular (% inhibition) DPP-I (RBL-2H3 cells)", "setting": "[1]", "result": 54, "unit": "%"}]}]}
